Results: patent publication US10954252B1, “Inhibitors of human immunodeficiency virus replication” (ViiV HEALTHCARE UK (NO.5) LIMITED, priority 2017, dated 2021)

Legend:
[1] = tested on: recombinant NL4-3 virus (nef section replaced with Renilla luciferase gene) in MT-2 cells; test: HIV cell culture assay (antiviral activity, luciferase readout); assay type: cell-based; settings: MT-2 cells infected for 4-5 days with recombinant NL4-3 luciferase virus
Description: HIV cell culture assay—MT-2 cells, 293T cells and the proviral DNA clone of NL4-3 virus were obtained from the NIH AIDS Research and Reference Reagent Program. MT-2 cells were propagated in RPMI 1640 media supplemented with 10% heat inactivated fetal bovine serum (FBS), 100 μg/ml penicillin G and up to 100 units/mL streptomycin. The 293T cells were propagated in DMEM media supplemented with 10% heat inactivated FBS, 100 μg/mL penicillin G and 100 μg/mL streptomycin. A recombinant NL4-3 proviral clone, in which a section of the nef gene was replaced with the Renilla luciferase gene, was used to make the reference virus used in these studies. The recombinant virus was prepared through transfection of the recombinant NL4-3 proviral clone into 293T cells using Transit-293 Transfection Reagent from Mirus Bio LLC (Madison, Wis.). Supernatent was harvested after 2-3 days and the amount of virus present was titered in MT-2 cells using luciferase enzyme activity as a marker by measuring luciferase enzyme activity. Luciferase was quantitated using the EnduRen Live Cell Substrate from Promega (Madison, Wis.). Antiviral activities of compounds toward the recombinant virus were quantified by measuring luciferase activity in MT-2 cells infected for 4-5 days with the recombinant virus in the presence of serial dilutions of the compound.
The 50% effective concentration (ECs) was calculated by using the exponential form of the median effect equation where (Fa)=1/[1+(ED50/drug conc.)^m] (Johnson Va., Byington RT. Infectivity Assay. In Techniques in HIV Research. ed. Aldovini A, Walker BD. 71-76. New York: Stockton Press. 1990).

[2] = Compound cytotoxicity, XTT-based colorimetric assay; assay type: cell-based; settings: human, uninfected MT2 cells
Description: Compound cytotoxicity and the corresponding CC50 values were determined using the same protocol as described in the antiviral assay except that uninfected cells were used. Cytotoxicity was assessed on day 4 in uninfected MT2 cells by using a XTT (2,3-bis[2-Methoxy-4-nitro-5-sulfophenyl]-2H-tetrazolium-5-carboxyanilide inner salt)-based colorimetric assay (Sigma-Aldrich, St Louis, Mo.). Biological data for select compounds of the invention are contained in Table 1 and Table 1a

SMILES	EC50 ([1]; Renilla, NL43, Table 1a) [nM]	CC50 at 4 days ([2]; Table 1a, day 4, XTT) [nM]	EC50 ([1]; Table 1a) [nM]	EC50 ([1]; Renilla, NL43, Table 1) [nM]	CC50 at 4 days ([2]; Table 1, day 4, XTT) [nM]
Cn1nc(NS(C)(=O)=O)c2c(Cl)ccc(-n3c([C@H](Cc4cc(F)cc(F)c4)NC(=O)Cn4nc(C(F)F)c5c4C(F)(F)[C@@H]4C[C@H]54)nc4cc(C#N)ccc4c3=O)c21 (mixture of isomers) [Example 166, N—((S)-1-(3-(4-chloro-1-methyl-3-(methylsulfonamido)-1H-indazol-7-yl)-7-cyano-4-oxo-3,4-dihydroquinazolin-2-yl)-2-(3,5-difluorophenyl)ethyl)-2-((3bS,4aR)-3-(difluoromethyl)-5,5-difluoro-3b,4,4a,5-tetrahydro-1H-cyclopropa[3,4]cyclopenta[1,2-c]pyrazol-1-yl)acetamide]	26	> 1000			
COc1cc(OC)c2c(=O)n(-c3ccc(Cl)c4c(NS(C)(=O)=O)nn(C)c34)c([C@H](Cc3cc(F)cc(F)c3)NC(=O)Cn3nc(C(F)F)c4c3C(F)(F)[C@@H]3C[C@H]43)nc2c1 (single isomer, unassigned) [Example 181]		> 1000	23.1		
Cn1nc(NS(C)(=O)=O)c2c(Cl)ccc(-n3c([C@H](Cc4cc(F)cc(F)c4)NC(=O)Cn4nc(C(F)F)c5c4C(F)(F)[C@@H]4C[C@H]54)nc4cc(C(F)(F)F)ccc4c3=O)c21 (single isomer, unassigned) [Example 137]		> 1000	9.89		
Cn1ccc2nc([C@H](Cc3cc(F)cc(F)c3)NC(=O)Cn3nc(C(F)F)c4c3C(F)(F)[C@@H]3C[C@H]43)c(-c3ccc(Cl)c4c(NS(C)(=O)=O)nn(C)c34)cc21 (single isomer, unassigned) [Example 119]	0.0924	> 10000			
CC(C)c1ccc(-c2cc3[nH]ncc3nc2C(Cc2cc(F)cc(F)c2)NC(=O)Cn2nc(C(F)F)c3c2C(F)(F)[C@@H]2C[C@H]32)cn1 (single isomer, unassigned) [Example 3.9]				9.9	9600
Cn1nc(NS(C)(=O)=O)c2c(Cl)ccc(-n3c([C@H](Cc4cc(F)cc(F)c4)NC(=O)Cn4ccc(C(F)(F)F)n4)nc4ccc(OC(F)(F)F)cc4c3=O)c21 (single isomer, unassigned) [Example 143]		> 1000	84		
Cn1nc(NS(C)(=O)=O)c2c(Cl)ccc(-n3c([C@H](Cc4cc(F)cc(F)c4)NC(=O)Cn4nc(C(F)F)c5c4C(F)(F)[C@@H]4C[C@H]54)nc4c(F)ccc(F)c4c3=O)c21 (single isomer, unassigned) [Example 147]		> 1000	27.9		
CC(C)c1ccc(-n2c([C@H](Cc3cc(F)cc(F)c3)NC(=O)Cn3nc(C(F)F)c4c3C(F)(F)[C@@H]3C[C@H]43)nc3ncccc3c2=O)cc1 [Example 10.35]				1.7	1900
Cn1nc(NS(C)(=O)=O)c2c(Cl)ccc(-n3c([C@H](Cc4cc(F)cc(F)c4)NC(=O)Cn4ccc(C5CC5)n4)nc4c(F)ccc(F)c4c3=O)c21 (single isomer, unassigned) [Example 145]		> 1000	30.2		
O=C(Cn1nc(C(F)F)c2c1C(F)(F)[C@@H]1C[C@H]21)N[C@@H](Cc1cc(F)cc(F)c1)c1nc2ccccc2nc1-c1ccc(S(=O)(=O)N2CCOCC2)cc1 [Example 156, 2-((3bS,4aR)-3-(difluoromethyl)-5,5-difluoro-3b,4,4a,5-tetrahydro-1H-cyclopropa[3,4]cyclopenta[1,2-c]pyrazol-1-yl)-N—((S)-2-(3,5-difluorophenyl)-1-(3-(4-(morpholinosulfonyl)phenyl)quinoxalin-2-yl)ethyl)acetamide]	16.4	> 10000			
O=C(Cn1nc(C(F)F)c2c1C(F)(F)[C@@H]1C[C@H]21)N[C@@H](Cc1cc(F)cc(F)c1)c1nc2ncccc2c(=O)n1-c1ccc2scnc2c1 [Example 10.24]				1.7	> 10000
O=C(Cn1nc(C(F)F)c2c1C(F)(F)[C@@H]1C[C@H]21)NC(Cc1cc(F)cc(F)c1)c1nc2cn[nH]c2cc1-c1ccc(OC(F)F)cc1 (single isomer, unassigned) [Example 3.10]				320	6800
Cn1nc(NS(C)(=O)=O)c2c(Cl)ccc(-n3c([C@H](Cc4cc(F)cc(F)c4)NC(=O)Cc4c[nH]c5ccc(O)cc45)nc4cc(CS(C)(=O)=O)ccc4c3=O)c21 [Example 203, (S)—N-(1-(3-(4-chloro-1-methyl-3-(methylsulfonamido)-1H-indazol-7-yl)-7-((methylsulfonyl)methyl)-4-oxo-3,4-dihydroquinazolin-2-yl)-2-(3,5-difluorophenyl)ethyl)-2-(5-hydroxy-1H-indol-3-yl)acetamide]		> 1000	166		
CS(=O)(=O)Nc1n[nH]c2c(-c3cc4[nH]ccc4nc3[C@H](Cc3cc(F)cc(F)c3)NC(=O)Cn3nc(C(F)F)c4c3C(F)(F)[C@@H]3C[C@H]43)ccc(Cl)c12 [Example 90, N—((S)-1-(6-(4-chloro-3-(methylsulfonamido)-1H-indazol-7-yl)-1H-pyrrolo[3,2-b]pyridin-5-yl)-2-(3,5-difluorophenyl)ethyl)-2-((3bS,4aR)-3-(difluoromethyl)-5,5-difluoro-3b,4,4a,5-tetrahydro-1H-cyclopropa[3,4]cyclopenta[1,2-c]pyrazol-1-yl)acetamide]	1.48	> 10000			
Cn1ccc2nc(C(Cc3cc(F)cc(F)c3)NC(=O)Cn3nc(C(F)F)c4c3C(F)(F)[C@@H]3C[C@H]43)c(-c3ccc(Cl)c4c(NS(C)(=O)=O)nn(C)c34)cc21 (single isomer, unassigned) [Example 117]	0.243	> 10000			
O=C(Cn1nc(C(F)F)c2c1C(F)(F)[C@@H]1C[C@H]21)N[C@@H](Cc1cc(F)cc(F)c1)c1nc2ncccc2c(=O)n1-c1ccc2ncsc2c1 [Example 36, N-[(1S)-1-[3-(1,3-benzothiazol-6-yl)-4-oxo-3H,4H-pyrido[2,3-d]pyrimidin-2-yl]-2-(3,5-difluorophenyl)ethyl]-2-[(2S,4R)-9-(difluoromethyl)-5,5-difluoro-7,8-diazatricyclo[4.3.0.0^2,4]nona-1(6),8-dien-7-yl]acetamide]	10.4	> 1000			
CC(C)n1nc(NS(C)(=O)=O)c2c(Cl)ccc(-n3c(C(Cc4cc(F)cc(F)c4)NC(=O)Cn4nc(C(F)F)c5c4C(F)(F)[C@@H]4C[C@H]54)nc4ncccc4c3=O)c21 (mixture of isomers) [Example 43.1]	30	> 10000			
Cn1nc(NS(C)(=O)=O)c2c(Cl)ccc(-n3c(C(Cc4cc(F)cc(F)c4)NC(=O)Cn4nc(C(F)F)c5c4C(F)(F)[C@@H]4C[C@H]54)nc4ncc(C#N)cc4c3=O)c21 (mixture of isomers) [Example 37.2, N-(1-(3-(4-chloro-1-methyl-3-(methylsulfonamido)-1H-indazol-7-yl)-6-cyano-4-oxo-3,4-dihydropyrido[2,3-d]pyrimidin-2-yl)-2-(3,5-difluorophenyl)ethyl)-2-((3bS,4aR)-3-(difluoromethyl)-5,5-difluoro-3b,4,4a,5-tetrahydro-1H-cyclopropa[3,4]cyclopenta[1,2-c]pyrazol-1-yl)acetamide]	0.54	> 10000			
Cn1nc(NS(C)(=O)=O)c2c(Cl)ccc(-n3c(C(Cc4cc(F)cc(F)c4)NC(=O)Cn4nc(C(F)F)c5c4C(F)(F)[C@@H]4C[C@H]54)nc4c(F)cc(F)cc4c3=O)c21 (stereo partly drawn) [Example 73]	1.53	> 1000			
NC(=O)c1cc(-n2c([C@H](Cc3cc(F)cc(F)c3)NC(=O)Cn3nc(C(F)F)c4c3C(F)(F)[C@@H]3C[C@H]43)nc3ncccc3c2=O)ccc1Cl [Example 34, 2-Chloro-5-{2-[(1S)-1-{2-[(2S,4R)-9-(difluoromethyl)-5,5-difluoro-7,8-diazatricyclo[4.3.0.0^2,4]nona-1(6),8-dien-7-yl]acetamido}-2-(3,5-difluorophenyl)ethyl]-4-oxo-3H,4H-pyrido[2,3-d]pyrimidin-3-yl}benzamide]	6.93	> 10000			
Cc1cc(C)c2c(=O)n(-c3ccc(Cl)c4c(NS(C)(=O)=O)nn(C)c34)c([C@H](Cc3cc(F)cc(F)c3)NC(=O)Cn3nc(C(F)F)c4c3C(F)(F)[C@@H]3C[C@H]43)nc2n1 [Example 42.2, N-[(1S)-1-[3-(4-chloro-3-methanesulfonamido-1-methyl-1H-indazol-7-yl)-5,7-dimethyl-4-oxo-3H,4H-pyrido[2,3-d]pyrimidin-2-yl]-2-(3,5-difluorophenyl)ethyl]-2-[(2S,4R)-9-(difluoromethyl)-5,5-difluoro-7,8-diazatricyclo[4.3.0.0^2,4]nona-1(6),8-dien-7-yl]acetamide]	0.016	> 10000			
